Structures are written as SMILES. pIC50: −log10 of the molar value. A value given as a limit tells only on which side of the number the result lay.

Data set [1] deals with Vascular endothelial growth factor receptor 2 (Homo sapiens, UniProt P35968). Nature of the data set: Inhibition of GST-6His tagged VEGFR2 (unknown origin) using biotin-aminohexyl-EEEEYFELVAKKKK-NH2 peptide substrate incubated for 90 mins by HTRF assay. In general terms: Time-resolved FRET reads energy transfer from a long-lived donor to a nearby acceptor.
Data set [2] deals with Serine/threonine-protein kinase B-raf (Homo sapiens, UniProt P15056). Nature of the data set: Inhibition of B-Raf (unknown origin).
Data set [3] can be described thus: Permeability of compound incubated for 2 hrs by liquid chromatography analysis. The settings on record: read-out: permeability. The format is ADME.
For data set [4], the target named is Mitogen-activated protein kinase 14 (Homo sapiens, UniProt Q16539). Nature of the data set: Inhibition of p38alpha (unknown origin).
For data set [5], the target named is T1, Serine/threonine-protein kinase TNNI3K (Homo sapiens, UniProt Q59H18).
T1 sequence (Q59H18 whole entry): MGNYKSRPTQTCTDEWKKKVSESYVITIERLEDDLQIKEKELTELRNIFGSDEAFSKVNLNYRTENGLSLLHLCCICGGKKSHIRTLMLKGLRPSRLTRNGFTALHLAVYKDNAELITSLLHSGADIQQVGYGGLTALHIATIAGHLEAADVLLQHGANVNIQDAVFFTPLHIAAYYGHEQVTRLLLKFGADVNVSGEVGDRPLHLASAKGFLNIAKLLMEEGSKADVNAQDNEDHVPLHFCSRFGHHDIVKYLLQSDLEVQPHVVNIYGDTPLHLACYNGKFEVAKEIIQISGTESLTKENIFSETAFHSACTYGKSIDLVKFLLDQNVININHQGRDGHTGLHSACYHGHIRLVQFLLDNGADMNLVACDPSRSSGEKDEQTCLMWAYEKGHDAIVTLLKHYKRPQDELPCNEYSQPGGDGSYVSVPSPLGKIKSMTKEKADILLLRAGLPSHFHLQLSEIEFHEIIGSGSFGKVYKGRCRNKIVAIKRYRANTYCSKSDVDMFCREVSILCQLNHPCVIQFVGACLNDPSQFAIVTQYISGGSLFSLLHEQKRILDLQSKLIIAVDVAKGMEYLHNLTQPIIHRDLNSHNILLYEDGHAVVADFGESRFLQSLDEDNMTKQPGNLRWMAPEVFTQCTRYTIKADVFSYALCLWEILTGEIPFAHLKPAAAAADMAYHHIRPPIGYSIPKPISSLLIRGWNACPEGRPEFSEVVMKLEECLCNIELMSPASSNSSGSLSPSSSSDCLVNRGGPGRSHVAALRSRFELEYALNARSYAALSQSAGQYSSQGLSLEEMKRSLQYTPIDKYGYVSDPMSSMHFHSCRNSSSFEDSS
In words: Inhibition of human myc-TNNI3K expressed in HEK-MSR2 cells assessed as reduction in TNNI3K autophosphorylation preincubated for 30 mins followed by pervanadate addition and measured after 20 mins by DELFIA. The class given is cell-based.

Data set [6] in a line: Half life in po dosed rat administered as cassette dose. The format is ADME, organism-based. The settings on record: in vivo.
Data set [7] is described as follows: Dose normalized AUC in po dosed rat administered as cassette dose. The class given is ADME, organism-based. The settings on record: in vivo.
The species entered for data set [8] is Homo sapiens. In words: Selectivity index, ratio of IC50 for inhibition of p38alpha (unknown origin) to IC50 for inhibition of TNNI3K (unknown origin).
The species named for data set [9] is Homo sapiens. In words: Selectivity index, ratio of IC50 for inhibition of VEGFR2 (unknown origin) to IC50 for inhibition of TNNI3K (unknown origin).
For data set [10], the target named is T1, Serine/threonine-protein kinase TNNI3K. In words: Inhibition of TNNI3K (unknown origin).

Vascular endothelial growth factor receptor 2, sequence (P35968 whole entry): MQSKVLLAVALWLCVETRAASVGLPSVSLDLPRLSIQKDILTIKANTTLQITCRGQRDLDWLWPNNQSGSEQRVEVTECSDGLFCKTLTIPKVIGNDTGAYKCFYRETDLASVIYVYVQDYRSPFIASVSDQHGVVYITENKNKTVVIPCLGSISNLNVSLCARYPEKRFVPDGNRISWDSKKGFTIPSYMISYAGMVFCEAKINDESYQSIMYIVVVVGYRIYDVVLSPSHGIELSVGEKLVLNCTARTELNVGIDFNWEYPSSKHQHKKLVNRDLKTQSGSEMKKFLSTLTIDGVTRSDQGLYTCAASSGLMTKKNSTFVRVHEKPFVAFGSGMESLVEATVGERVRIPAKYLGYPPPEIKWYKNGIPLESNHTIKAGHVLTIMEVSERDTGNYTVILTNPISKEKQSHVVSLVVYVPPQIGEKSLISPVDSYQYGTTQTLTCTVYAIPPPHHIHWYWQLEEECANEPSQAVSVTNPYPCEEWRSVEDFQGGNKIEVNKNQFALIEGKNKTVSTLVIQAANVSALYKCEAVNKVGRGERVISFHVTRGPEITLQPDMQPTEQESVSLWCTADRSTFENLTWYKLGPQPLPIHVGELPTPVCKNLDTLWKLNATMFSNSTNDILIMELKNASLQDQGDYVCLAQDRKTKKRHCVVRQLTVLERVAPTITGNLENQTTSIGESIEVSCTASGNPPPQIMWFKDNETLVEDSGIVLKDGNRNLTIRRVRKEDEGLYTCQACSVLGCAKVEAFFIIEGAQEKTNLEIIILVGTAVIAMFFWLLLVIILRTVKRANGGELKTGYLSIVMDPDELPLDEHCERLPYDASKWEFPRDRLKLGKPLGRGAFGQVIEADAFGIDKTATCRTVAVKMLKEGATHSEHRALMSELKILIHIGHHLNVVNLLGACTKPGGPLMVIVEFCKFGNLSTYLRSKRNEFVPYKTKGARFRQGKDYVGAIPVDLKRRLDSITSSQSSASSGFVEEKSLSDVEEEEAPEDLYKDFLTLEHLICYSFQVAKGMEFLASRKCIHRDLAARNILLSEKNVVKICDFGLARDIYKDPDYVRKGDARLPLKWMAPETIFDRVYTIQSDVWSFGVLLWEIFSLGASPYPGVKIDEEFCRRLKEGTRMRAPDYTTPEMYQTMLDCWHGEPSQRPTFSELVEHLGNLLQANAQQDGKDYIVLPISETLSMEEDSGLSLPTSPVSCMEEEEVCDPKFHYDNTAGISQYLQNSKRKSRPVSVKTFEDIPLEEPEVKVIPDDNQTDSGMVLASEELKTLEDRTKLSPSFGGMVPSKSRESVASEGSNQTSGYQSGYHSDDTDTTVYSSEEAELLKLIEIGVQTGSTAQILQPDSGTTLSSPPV
Serine/threonine-protein kinase B-raf, sequence (P15056 whole entry): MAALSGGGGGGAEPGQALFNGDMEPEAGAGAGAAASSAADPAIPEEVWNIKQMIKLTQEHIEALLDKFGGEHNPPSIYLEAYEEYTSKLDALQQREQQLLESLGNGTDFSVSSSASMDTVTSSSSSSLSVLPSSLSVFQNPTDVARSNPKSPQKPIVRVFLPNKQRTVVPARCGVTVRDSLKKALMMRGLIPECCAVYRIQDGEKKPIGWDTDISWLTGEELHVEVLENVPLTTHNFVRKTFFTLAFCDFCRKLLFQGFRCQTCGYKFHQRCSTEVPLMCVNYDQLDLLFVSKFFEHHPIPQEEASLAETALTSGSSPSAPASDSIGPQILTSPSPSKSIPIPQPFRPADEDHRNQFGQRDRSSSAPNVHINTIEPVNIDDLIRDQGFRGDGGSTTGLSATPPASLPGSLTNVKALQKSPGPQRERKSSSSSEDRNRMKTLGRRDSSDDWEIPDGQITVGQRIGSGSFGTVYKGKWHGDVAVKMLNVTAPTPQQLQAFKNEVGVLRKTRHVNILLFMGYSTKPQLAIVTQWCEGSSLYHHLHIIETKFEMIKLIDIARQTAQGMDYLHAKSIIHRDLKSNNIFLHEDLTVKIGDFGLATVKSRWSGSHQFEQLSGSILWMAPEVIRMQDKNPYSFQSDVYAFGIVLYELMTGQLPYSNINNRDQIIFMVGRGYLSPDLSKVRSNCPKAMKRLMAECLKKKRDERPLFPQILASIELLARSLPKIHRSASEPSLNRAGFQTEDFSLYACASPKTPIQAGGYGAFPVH
Mitogen-activated protein kinase 14, sequence (Q16539 whole entry): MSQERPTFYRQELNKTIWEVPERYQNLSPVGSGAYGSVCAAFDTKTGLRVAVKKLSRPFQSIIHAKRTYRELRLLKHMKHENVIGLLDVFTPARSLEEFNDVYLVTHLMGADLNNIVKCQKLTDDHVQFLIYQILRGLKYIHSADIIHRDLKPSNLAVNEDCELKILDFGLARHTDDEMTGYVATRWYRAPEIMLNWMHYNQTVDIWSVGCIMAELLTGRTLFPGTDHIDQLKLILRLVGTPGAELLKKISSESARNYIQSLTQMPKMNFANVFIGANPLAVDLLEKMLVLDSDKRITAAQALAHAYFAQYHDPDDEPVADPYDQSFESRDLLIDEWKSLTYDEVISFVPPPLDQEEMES

For the compound `CNc1cc(Oc2c(C)cc(NC(=O)Nc3cccc(C(F)(F)F)c3)cc2C)ncn1`, the pIC50 (as a rule, the negative decadic logarithm of the IC50, by convention in mol/L) in data set [1] is 6.00; in [2] it was 5.70; in data set [4], 5.20; in data set [5] it was 8.10. For the same compound, in data set [3], the Papp at 2 h was 29.5 ×10⁻⁶ cm/s. For the same compound, the half-life (commonly how long it takes for the measured level to halve) in [6] is 2.4 h. Also, the AUC/dose in [7] amounted to 1.5 kg·h/L. Also, the figures for the Ratio IC50 in the data set filed under Homo sapiens [8] and in the data set listed under Homo sapiens [9] were 250 and 40, respectively.
`CC(C)(O)CNc1cc(Oc2ccc(NC(=O)Nc3cccc(C(F)(F)F)c3)cc2)ncn1`: the negative logarithm of the IC50 (pIC50) in [1] was 6.49; in [2] it was 5.80; in data set [10], 7.40; in [4] it was 6.20; in data set [5] it was 7.30. Also, in data set [3], the Papp at 2 h was determined as 21 ×10⁻⁶ cm/s. In [6], this compound showed a half-life of 3.7 h. In addition, the AUC/dose in [7] was determined as 2 kg·h/L. In addition, the Ratio IC50 in the data set filed under Homo sapiens [8] is 16; in the data set listed under Homo sapiens [9] it was 8.
In turn, `CNS(=O)(=O)c1ccc(N(C)C)c(Nc2ncnc3cc(OC)c(OC)cc23)c1` showed a negative logarithm of the IC50 (pIC50) in data set [2] of 6.00. This compound had an AUC/dose in [7] of 0.18 kg·h/L.
`Nc1cc(Oc2ccc(NC(=O)Nc3cccc(C(F)(F)F)c3)cc2)ncn1`: the pIC50 was 8.10 in data set [1]; 5.80 in [2]; 7.60 in data set [10]; 6.00 in [4]; 7.80 in data set [5]. For the same compound, the Papp at 2 h in data set [3] was determined as 24.5 ×10⁻⁶ cm/s. The compound further had a half-life in data set [6] of 3.2 h. Also, in data set [7], the AUC/dose turned out to be 0.4 kg·h/L. For the same compound, the Ratio IC50 was determined as 40 in the data set filed under Homo sapiens [8] and 0.32 in the data set listed under Homo sapiens [9].
`CNC(=O)c1cc(Oc2ccc(NC(=O)Nc3ccc(Cl)c(C(F)(F)F)c3)cc2)ccn1` [SORAFENIB]: the Papp at 2 h in data set [3] was 11 ×10⁻⁶ cm/s. The compound further gave a half-life in data set [6] of 6.8 h. The AUC/dose in [7] was 5.8 kg·h/L.
`CNc1cc(Oc2ccc(NC(=O)Nc3cccc(C(F)(F)F)c3)cc2)ncn1`: the negative-log IC50 (pIC50) is 7.60 in data set [1]; 6.30 in [2]; 7.40 in data set [10]; 6.00 in data set [4]; 7.70 in [5]. Also, the Papp at 2 h in data set [3] is 23 ×10⁻⁶ cm/s. The half-life in data set [6] was 3.2 h. Besides, the AUC/dose in [7] turned out to be 3.8 kg·h/L. For the same compound, the Ratio IC50 is 25 in the data set listed under Homo sapiens [8] and 0.63 in the data set listed under Homo sapiens [9].
Regarding `CNc1cc(Oc2ccc(NC(=O)Nc3ccccc3)cc2)ncn1`, the pIC50 in data set [1] was 5.20; in data set [2], less than 5.70; in data set [10], 5.20; in [4], less than 4.60. Moreover, the results for the Ratio IC50 in the data set filed under Homo sapiens [8] and in the data set filed under Homo sapiens [9] were more than 4 and 1, respectively.
As to `CNc1cc(Oc2ccc(NC(=O)Nc3cccc(C(F)(F)F)c3)c(F)c2)ncn1`, the negative logarithm of the IC50 (pIC50) in [1] is 8.20; in data set [2] it was 7.20; in data set [10], 7.20; in data set [4] it was 6.40. For the same compound, the values for the Ratio IC50 in the data set filed under Homo sapiens [8] and in the data set listed under Homo sapiens [9] were 6.3 and 0.1, respectively.
As for `CNc1cc(Oc2c(C)cc(NC(=O)Nc3cccc(C(F)(F)F)c3)cc2Cl)ncn1`, the pIC50 is 6.40 in data set [1], less than 5.70 in [2], 7.10 in data set [10] and 5.70 in data set [4]. For the same compound, the Ratio IC50 in the data set filed under Homo sapiens [8] came out at 25; in the data set listed under Homo sapiens [9], 5.1.
Regarding `CN(C)c1cc(Oc2ccc(NC(=O)Nc3cccc(C(F)(F)F)c3)cc2)ncn1`, the pIC50 in data set [1] is 5.60; in data set [2], 6.00; in data set [10] it was 5.60; in data set [4] it was 5.70. In addition, the Ratio IC50 in the data set filed under Homo sapiens [8] amounted to 0.8; in the data set listed under Homo sapiens [9], 1.
For the compound `COc1cc2ncnc(Oc3ccc(NC(=O)Nc4cccc(C(F)(F)F)c4)cc3)c2cc1OC`, the negative logarithm of the IC50 (pIC50) in data set [1] is 8.70; in data set [2], 7.20; in data set [10], 7.64; in data set [4], 6.10. Further, the Ratio IC50 in the data set listed under Homo sapiens [8] came to 32; in the data set filed under Homo sapiens [9] it was 0.08.
For the compound `O=C(Nc1ccc(Oc2ccnc3ccccc23)cc1)Nc1cccc(C(F)(F)F)c1`, the pIC50 in [1] is 8.30; in data set [2] it was 6.70; in data set [10], 7.20; in data set [4], 7.00. For the same compound, the Ratio IC50 in the data set filed under Homo sapiens [8] was 1.6; in the data set filed under Homo sapiens [9], 0.08.
With `CCc1cc(NC(=O)Nc2cccc(C(F)(F)F)c2)cc(Cl)c1Oc1cc(NC)ncn1`, the pIC50 in data set [1] is 5.60; in data set [2] it was less than 5.70; in data set [10] it was not below 8.00; in data set [4], 5.80; in [5], 7.00. Moreover, in data set [3], the Papp at 2 h came to 5.9 ×10⁻⁶ cm/s. In [6], the half-life was 3.7 h. For the same compound, in [7], the AUC/dose is 1.2 kg·h/L. Also, the figures for the Ratio IC50 in the data set listed under Homo sapiens [8] and in the data set filed under Homo sapiens [9] were more than 160 and more than 250, respectively.
Turning to `CCS(=O)(=O)c1ccc(S(=O)(=O)NC)cc1Nc1cc(Nc2ccc(Cl)cn2)ncn1`, in data set [10], the pIC50 is not below 8.00. In addition, the AUC/dose in data set [7] came out at 0.56 kg·h/L.
Take `O=C(Nc1ccc(Oc2ncnc3ccccc23)cc1)Nc1cccc(C(F)(F)F)c1`: the pIC50 in data set [1] is 6.49; in data set [2], 5.90; in data set [10], 6.10; in [4] it was 5.90. Also, the Ratio IC50 in the data set filed under Homo sapiens [8] is 1.6; in the data set filed under Homo sapiens [9] it was 0.4.
On to `COc1ccc2ncnc(Oc3ccc(NC(=O)Nc4cccc(C(F)(F)F)c4)cc3)c2c1`, for which the pIC50 in [1] was 8.00; in [2], 6.40; in data set [10], 7.00; in data set [4] it was 5.80. Moreover, the Ratio IC50 in the data set listed under Homo sapiens [8] was found to be 16; in the data set filed under Homo sapiens [9] it was 0.1.
With `O=C(Nc1ccc(Oc2cc(Nc3cccc(CN4CCCC4)c3)ncn2)cc1)Nc1cccc(C(F)(F)F)c1`, the pIC50 in [1] is 8.49; in [2] it was 6.70; in [10] it was 8.00; in data set [4], 7.30. Besides, the values for the Ratio IC50 in the data set listed under Homo sapiens [8] and in the data set listed under Homo sapiens [9] were 5 and 0.32, respectively.
In the case of `O=C(Nc1ccc(Oc2ccncc2)cc1)Nc1cccc(C(F)(F)F)c1`, the negative logarithm of the IC50 (pIC50) is 7.70 in data set [1], 6.20 in data set [2], 7.30 in [10] and 6.70 in data set [4]. For the same compound, the Ratio IC50 was determined as 4 in the data set listed under Homo sapiens [8] and 0.4 in the data set filed under Homo sapiens [9].
With `O=C(Nc1ccc(Oc2cc(O)ncn2)cc1)Nc1cccc(C(F)(F)F)c1`, the pIC50 in data set [1] was 5.49; in data set [2], less than 5.70; in data set [10] it was 5.49; in [4] it was 5.80. In addition, the results for the Ratio IC50 in the data set filed under Homo sapiens [8] and in the data set listed under Homo sapiens [9] were 0.5 and 1, respectively.
As for `O=C(Nc1ccc(Oc2cc(NCCO)ncn2)cc1)Nc1cccc(C(F)(F)F)c1`, the pIC50 in data set [1] was 7.10; in data set [2], 6.00; in data set [10], 7.49; in data set [4], 6.00; in data set [5], 7.40. The Papp at 2 h in data set [3] worked out at 8.2 ×10⁻⁶ cm/s. In [6], this compound had a half-life of 4.5 h. This compound returned an AUC/dose in [7] of 0.3 kg·h/L. The Ratio IC50 came out at 31 in the data set filed under Homo sapiens [8] and 2.5 in the data set filed under Homo sapiens [9].
Consider `CNc1cc(Oc2ccc(NC(=O)Nc3cccc(C(C)F)c3)cc2)ncn1` (configuration not stated), for which the negative-log IC50 (pIC50) was 7.10 in data set [1], 6.00 in data set [2], 7.10 in data set [10] and 5.30 in data set [4]. Moreover, the figures for the Ratio IC50 in the data set listed under Homo sapiens [8] and in the data set listed under Homo sapiens [9] were 63 and 1, respectively.
On to `CNS(=O)(=O)c1ccc(N(C)C)c(Nc2ncnc3[nH]ccc23)c1`, for which the pIC50 in data set [2] is 8.22. The compound also displayed an AUC/dose in data set [7] of 0.59 kg·h/L.
`O=C(Nc1ccc(Oc2ccnc3[nH]ccc23)cc1)Nc1cccc(C(F)(F)F)c1`: the negative-log IC50 (pIC50) was 8.49 in data set [1], 6.49 in [2], 7.49 in data set [10] and 7.49 in data set [4]. Moreover, the Ratio IC50 was determined as 1 in the data set listed under Homo sapiens [8] and 0.1 in the data set listed under Homo sapiens [9].
Regarding `CNc1cc(Oc2ccc(NC(=O)Nc3cccc(CF)c3)cc2)ncn1`, the negative-log IC50 (pIC50) in data set [1] was 6.40; in [2], less than 5.70; in data set [10], 6.40; in data set [4], 4.60. Further, the Ratio IC50 in the data set filed under Homo sapiens [8] is 63; in the data set filed under Homo sapiens [9], 1.

Values taken from ChEMBL document CHEMBL4840354, “Identification of Diarylurea Inhibitors of the Cardiac-Specific Kinase TNNI3K by Designing Selectivity Against VEGFR2, p38α, and B-Raf” (J Med Chem, 2021).
